Several values for one entry are separate records, joined by “and”; a condition that tells them apart may be missing. Equal entries are not always repeated.
Key:
mKOR [1] = target: T1, mKOR (Mus musculus, UniProt P33534); assay: biochemical
KOR = KOR (Homo sapiens, UniProt P41145); assay: Radioligand binding counter-screen (NIMH PDSP); set-up: NIMH Psychoactive Drug Screening Program
SERT = target: T2, SERT (Homo sapiens, UniProt P31645); assay: Radioligand binding counter-screen (NIMH PDSP)
T2 construct: NIMH Psychoactive Drug Screening Program
T2 sequence (P31645 whole entry, species assumed): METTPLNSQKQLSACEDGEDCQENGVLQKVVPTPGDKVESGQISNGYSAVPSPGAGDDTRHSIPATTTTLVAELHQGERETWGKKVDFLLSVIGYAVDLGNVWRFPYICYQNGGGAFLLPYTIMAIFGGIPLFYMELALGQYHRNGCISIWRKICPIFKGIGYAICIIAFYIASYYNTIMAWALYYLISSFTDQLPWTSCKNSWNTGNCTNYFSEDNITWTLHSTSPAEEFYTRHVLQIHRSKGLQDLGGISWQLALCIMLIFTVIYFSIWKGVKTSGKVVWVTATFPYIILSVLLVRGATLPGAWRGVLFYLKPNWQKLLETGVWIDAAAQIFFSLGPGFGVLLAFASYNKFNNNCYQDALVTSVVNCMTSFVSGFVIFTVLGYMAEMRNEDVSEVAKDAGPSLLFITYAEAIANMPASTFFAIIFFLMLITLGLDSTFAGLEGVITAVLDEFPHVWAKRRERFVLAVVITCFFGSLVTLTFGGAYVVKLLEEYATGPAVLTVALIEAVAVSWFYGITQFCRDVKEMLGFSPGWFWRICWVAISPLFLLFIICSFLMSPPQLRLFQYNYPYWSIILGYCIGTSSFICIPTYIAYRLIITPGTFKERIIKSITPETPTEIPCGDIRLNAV

MOR [2] = target: T3, MOR (Homo sapiens, UniProt P35372); assay: cell-based
T3 sequence (P35372 whole entry): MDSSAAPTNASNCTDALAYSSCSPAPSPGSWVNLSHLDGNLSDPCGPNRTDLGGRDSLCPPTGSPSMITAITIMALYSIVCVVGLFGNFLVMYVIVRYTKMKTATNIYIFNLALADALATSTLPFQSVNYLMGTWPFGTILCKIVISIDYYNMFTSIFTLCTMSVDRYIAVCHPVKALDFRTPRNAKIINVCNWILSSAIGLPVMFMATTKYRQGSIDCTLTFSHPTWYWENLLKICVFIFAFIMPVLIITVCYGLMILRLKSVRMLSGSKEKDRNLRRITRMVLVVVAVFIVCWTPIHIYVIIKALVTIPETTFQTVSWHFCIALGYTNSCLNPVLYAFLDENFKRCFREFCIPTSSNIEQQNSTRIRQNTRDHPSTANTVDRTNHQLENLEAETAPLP

mMOR [3] = target: T4, mMOR (Mus musculus, UniProt P42866); assay: cell-based; set-up: expressed in transfected cells; host or cells: HEK-293T
T4 sequence (P42866 whole entry): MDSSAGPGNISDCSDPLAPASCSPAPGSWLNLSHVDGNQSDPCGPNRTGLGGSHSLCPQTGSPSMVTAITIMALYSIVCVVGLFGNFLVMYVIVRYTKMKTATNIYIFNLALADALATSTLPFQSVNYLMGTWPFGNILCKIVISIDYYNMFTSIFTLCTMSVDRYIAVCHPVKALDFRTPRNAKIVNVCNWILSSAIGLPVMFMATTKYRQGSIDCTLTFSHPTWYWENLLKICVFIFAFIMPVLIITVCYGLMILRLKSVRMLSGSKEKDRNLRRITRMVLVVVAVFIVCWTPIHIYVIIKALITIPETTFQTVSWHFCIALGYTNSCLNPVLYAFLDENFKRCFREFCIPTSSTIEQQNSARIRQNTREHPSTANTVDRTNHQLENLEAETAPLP

MOR [4] = target: T3, MOR
mKOR [5] = target: T1, mKOR; assay: biochemical; remark: listed apart in the source
rKOR = rKOR (Rattus norvegicus, UniProt P34975); assay: cell-based
Chain of rKOR (P34975 whole entry): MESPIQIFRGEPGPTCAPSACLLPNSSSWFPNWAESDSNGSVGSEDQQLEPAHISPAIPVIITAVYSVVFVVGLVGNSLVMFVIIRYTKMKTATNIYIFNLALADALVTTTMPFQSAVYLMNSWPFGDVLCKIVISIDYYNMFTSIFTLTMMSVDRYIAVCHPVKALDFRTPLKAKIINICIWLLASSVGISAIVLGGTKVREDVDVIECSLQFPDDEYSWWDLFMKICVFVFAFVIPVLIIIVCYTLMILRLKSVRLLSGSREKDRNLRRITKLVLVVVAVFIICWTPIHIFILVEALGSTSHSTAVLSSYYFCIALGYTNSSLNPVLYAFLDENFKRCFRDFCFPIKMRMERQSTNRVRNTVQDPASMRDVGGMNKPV

Y312W-hKOR = Y312W-hKOR (Homo sapiens, UniProt P41145, Y312W); assay: cell-based
Chain of Y312W-hKOR (P41145 whole entry Y312W): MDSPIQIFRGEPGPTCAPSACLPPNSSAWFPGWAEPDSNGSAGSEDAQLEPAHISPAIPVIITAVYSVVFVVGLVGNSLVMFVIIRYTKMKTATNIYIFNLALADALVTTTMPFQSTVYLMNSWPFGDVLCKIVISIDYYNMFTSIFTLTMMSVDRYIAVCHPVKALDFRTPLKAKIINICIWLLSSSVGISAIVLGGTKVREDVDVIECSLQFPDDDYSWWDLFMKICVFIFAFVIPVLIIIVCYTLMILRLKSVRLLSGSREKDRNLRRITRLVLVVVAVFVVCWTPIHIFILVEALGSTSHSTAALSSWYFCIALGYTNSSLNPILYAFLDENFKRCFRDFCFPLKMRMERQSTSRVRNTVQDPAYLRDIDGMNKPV

DOR [6] = target: T5, DOR (Homo sapiens, UniProt P41143); assay: Radioligand binding counter-screen (NIMH PDSP); set-up: National Institutes of Mental Health Psychoactive Drug Screen Program (service)
T5 sequence (P41143 whole entry): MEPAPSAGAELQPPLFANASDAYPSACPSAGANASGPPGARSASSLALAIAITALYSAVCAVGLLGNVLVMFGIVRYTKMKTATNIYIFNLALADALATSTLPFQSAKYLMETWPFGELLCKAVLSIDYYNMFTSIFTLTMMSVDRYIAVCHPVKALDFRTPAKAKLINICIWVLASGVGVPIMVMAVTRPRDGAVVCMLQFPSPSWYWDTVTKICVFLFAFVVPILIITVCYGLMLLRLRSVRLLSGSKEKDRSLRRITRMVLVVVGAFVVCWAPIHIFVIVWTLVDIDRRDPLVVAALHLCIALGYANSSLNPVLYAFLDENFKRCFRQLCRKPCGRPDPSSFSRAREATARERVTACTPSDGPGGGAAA

mMOR [7] = target: T4, mMOR; assay: biochemical
mDOR [8] = target: T6, mDOR (Mus musculus, UniProt P32300); assay: biochemical; settings: read-out: Emax mDOR [35S]GTPγS
T6 sequence (P32300 whole entry): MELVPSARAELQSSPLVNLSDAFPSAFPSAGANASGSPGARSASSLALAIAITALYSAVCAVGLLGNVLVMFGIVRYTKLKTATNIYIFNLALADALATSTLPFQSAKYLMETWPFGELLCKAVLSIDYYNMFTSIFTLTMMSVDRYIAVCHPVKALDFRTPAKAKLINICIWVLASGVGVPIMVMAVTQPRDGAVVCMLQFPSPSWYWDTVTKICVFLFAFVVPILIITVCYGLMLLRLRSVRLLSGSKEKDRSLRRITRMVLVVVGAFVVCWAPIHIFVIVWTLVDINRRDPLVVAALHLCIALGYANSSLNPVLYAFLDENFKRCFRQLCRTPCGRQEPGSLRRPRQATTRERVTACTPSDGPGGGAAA

DOR [9] = target: T5, DOR; assay: cell-based
mDOR [10] = target: T6, mDOR; assay: cell-based
mMOR [11] = target: T4, mMOR; assay: biochemical; remark: listed apart in the source

T1 sequence (P33534 whole entry): as the sequence (P34975 whole entry) above, with E11D, A17S, P51S, V308A counted along it
Chain of KOR (P41145 whole entry): as the sequence (P41145 whole entry Y312W) above, with W312Y counted along it

Compound `NCc1cccc(C(=O)N[C@@H]2CCC3C4Cc5ccc(O)c6c5[C@@]3(CCN4CC3CC3)C2O6)c1` (stereo partly drawn) [MP1207, 3-(Aminomethyl)-N-((7R,12bS)−3-(cyclopropylmethyl)−9-hydroxy-2,3,4,4a,5,6,7,7a-octahydro-1H-4,12-methanobenzofuro[3,2-e]isoquinolin-7-yl)benzamide] has a Ki (mKOR [1]) of 0.39 ± 0.05 nM, a Ki (KOR) of 0.39 nM and a Ki (SERT) of 356 nM. The “selectivity for MOR and KOR over the nearest non-opioid target” value (SERT; from counter-screen Ki) was 900 fold, the Emax (MOR [2]; HEK-293T, read-out: Emax% cAMP inhibition hMOR) was 33 ± 1.4% and the EC50 (MOR [2]; pEC50 cAMP inhibition hMOR) was 0.0339 nM. The “arrestin recruitment at mMOR (in words)” value (mMOR [3]) was “No recruitment of βarrestin-2”, the “arrestin recruitment at hMOR (in words)” value (MOR [4]) was “completely abolished” and the EC50 (mKOR [5]; EC50 mKOR [35S]GTPγS, ± SEM) was 1.5 nM and 1.52 nM. The Emax (mKOR [5]; read-out: Emax mKOR [35S]GTPγS) was 39.3 ± 1.3%, the EC50 (rKOR) was 1.13 nM and the Emax (rKOR; HEK-293T, read-out: Emax% G protein activation (BRET) rKOR) was 32 ± 2.3%. The EC50 (Y312W-hKOR) was 0.16 nM, the Emax (Y312W-hKOR; read-out: Emax% cAMP inhibition Y312W-hKOR) was 95 ± 1.8% and the Ki (DOR [6]) was 60.1 nM. For the same compound, the Ki (mMOR [7]) was 0.23 ± 0.02 nM, the Emax (mDOR [8]) was 10 to 15% and the EC50 (DOR [9]; EC50 cAMP inhibition hDOR) was 11.4 nM. It also gave an Emax (DOR [9]; HEK-293T, read-out: Emax% cAMP inhibition hDOR) of 38 ± 2%, an EC50 (mDOR [10]; EC50 G protein activation (BRET) mDOR) of 116 nM and an Emax (mDOR [10]; HEK-293T, read-out: Emax% G protein activation (BRET) mDOR) of 52 ± 2.3%. For the same compound, the EC50 (mMOR [11]; EC50 mMOR [35S]GTPγS, ± SEM) was 1.3 nM and 1.29 nM and the Emax (mMOR [11]; read-out: Emax mMOR [35S]GTPγS) was 41 ± 1%.

From publication PMC7909954 (eLife, 2021)
